According to US5206236A, “Method for the treatment of malaria” (priority 1991, dated 1993):
“Also recorded” adds a separate entry of the source. Like-named read-outs stand apart in the source and are kept apart here.

Assays:
Assay type in all cases: cell-based
[1] = system: Plasmodium falciparum strain W2 (chloroquine-resistant, mefloquine-sensitive); assay: In vitro drug sensitivity assay (3H-hypoxanthine incorporation), strain W2; conditions: for IC50: Plasmodium falciparum
Procedure: (§1) Plasmodium falciparum strains W2 (chloroquine-resistant, mefloquine-sensitive) and D6 (mefloquine-resistant, chloroquine-sensitive)were cultured in a medium consisting of RPMI-1640, 25 mM HEPES, 25 mM NaHCO3, and 10% (v/v) fresh frozen human plasma. Into the wells of a 96 well microtiter plate there was placed 200 ul per well of a 1.5% erythrocyte suspension containing 0.2% to 0.4% parasitized erythrocytes containing serial dilutions of the test compounds. The plate was then placed in an anaerobic chamber, flushed with nitrogen gas and incubated at 37° C. After 24 hours, 25 ul per well of G-^3 H-hypoxanthine (1 mCi/ml) were added and the plate reincubated as above. After 42 hours, the cells were harvested with a multimash-type cell harvester onto glass microfiber paper. A scintillation counter was used to determine the incorporated of ^3 H-hypoxanthine. The activities of the compounds tested were determined by comparing the incorporation of ^3 H-hypoxanthine to drug concentration using computerized non-linear regression analysis. [Antimicrob. Agents Chemother. 16:710, 1979; Am.J.Trop.Med.Hygiene 34:209, 1985].

[2] = system: Plasmodium falciparum strain D6 (mefloquine-resistant, chloroquine-sensitive); assay: In vitro drug sensitivity assay (3H-hypoxanthine incorporation), strain D6; conditions: for IC50: Plasmodium falciparum
Procedure: as §1

[3] = system: Plasmodium falciparum strains W2 and D6; assay: In vitro drug sensitivity assay, overall efficacy over both strains; conditions: qualitative
Procedure: as §1

[4] = strain W2, 3H-hypoxanthine incorporation, 42 hours, 37° C, read-out: IC50 (uM), W2
[5] = strain D6, 3H-hypoxanthine incorporation, 42 hours, 37° C, read-out: IC50 (uM), D6

COc1cc(C(=N)N)ccc1OCCCOc1ccc(C(=N)N)cc1OC [Example 1]
IC50 [1, 4]: 0.065 µM | IC50 [2, 5]: 0.077 µM

N=C(N)c1ccc(NCCCCNc2ccc(C(=N)N)cc2)cc1 [Example 2]
IC50 [1, 4]: 0.057 µM | IC50 [2, 5]: 0.025 µM

N=C(N)c1ccc(OCCCCOc2ccc(C(=N)N)cc2)cc1 [Example 3]
IC50 [1, 4]: 0.12 µM | IC50 [2, 5]: 0.057 µM

N=C(N)c1ccc(OCCCCCOc2ccc(C(=N)N)cc2)cc1 [Example 4, reference compound]
IC50 ([1]; W2, read-out: IC50 (uM), W2): 0.083 µM | IC50 ([2]; D6, read-out: IC50 (uM), D6): 0.038 µM | efficacy against malaria (in words) [3]: moderately effective against malaria

N=C(N)c1ccc(OCCCCCOc2ccc(C(=N)N)cc2[N+](=O)[O-])c([N+](=O)[O-])c1 [Example 5]
IC50 ([1]; W2, read-out: IC50 (uM), W2): 0.069 µM | IC50 ([2]; D6, read-out: IC50 (uM), D6): 0.071 µM

N=C(N)c1ccc(OCCCCCOc2ccc(C(=N)N)cc2N)c(N)c1 [Example 6]
IC50 [1, 4]: 0.076 µM | IC50 [2, 5]: 0.046 µM

COc1cc(C(=N)N)ccc1OCCCCCOc1ccc(C(=N)N)cc1OC [Example 7]
IC50 [1, 4]: 0.066 µM | IC50 [2, 5]: 0.106 µM

N=C(N)c1ccc(NCCCCCNc2ccc(C(=N)N)cc2)cc1 [Example 8]
IC50 [1, 4]: 0.022 µM | efficacy against the chloroquine-resistant strain (W2) (in words) ([1]; qualitative): most effective compound | IC50 [2, 5]: < 0.02 µM | efficacy against the mefloquine-resistant strain (D6) (in words) ([2]; qualitative): most effective compound | efficacy against malaria (in words) [3]: most efficacious product identified to date; also recorded: best compound for treating both strains of Plasmodium falciparum

N=C(N)c1ccc(OCCCCCCOc2ccc(C(=N)N)cc2)cc1 [Example 9]
IC50 [1, 4]: 0.345 µM | IC50 [2, 5]: 0.118 µM

N=C(N)c1ccc(OCCCCCOc2ccc(C(=N)N)cc2Cl)c(Cl)c1 [Example 10]
IC50 [1, 4]: 0.165 µM | IC50 [2, 5]: 0.107 µM

N=C(N)c1cccc(OCCCOc2cccc(C(=N)N)c2)c1 [Example 11]
IC50 [1, 4]: 0.156 µM | IC50 [2, 5]: 0.194 µM

N=C(N)c1cccc(OCCCCOc2cccc(C(=N)N)c2)c1 [Example 12]
IC50 [1, 4]: 0.043 µM | IC50 [2, 5]: 0.046 µM | efficacy against malaria (in words) [3]: Very close in therapeutic efficacy against malaria

N=C(N)c1cccc(OCCCCCOc2cccc(C(=N)N)c2)c1 [Example 13]
IC50 [1, 4]: 0.08 µM | IC50 [2, 5]: 0.069 µM

N=C(N)c1cccc(OCCCCCCOc2cccc(C(=N)N)c2)c1 [Example 14]
IC50 [1, 4]: 0.125 µM | IC50 [2, 5]: 0.132 µM

c1cc(C2=NCCN2)ccc1OCCCCCOc1ccc(C2=NCCN2)cc1 [Example 15]
IC50 [1, 4]: 0.104 µM | IC50 [2, 5]: 0.023 µM | efficacy against malaria (in words) [3]: Very close in therapeutic efficacy against malaria

CN1CCN=C1c1ccc(OCCCCCOc2ccc(C3=NCCN3C)cc2)cc1 [Example 16]
IC50 [1, 4]: 1.82 µM | IC50 [2, 5]: 0.089 µM

COc1cc(C2=NCCN2)ccc1OCCCOc1ccc(C2=NCCN2)cc1OC [Example 17]
IC50 [1, 4]: 0.06 µM | IC50 [2, 5]: 0.1 µM

c1cc(C2=NCCN2)ccc1OCCCOc1ccc(C2=NCCN2)cc1 [Example 18]
IC50 [1, 4]: 0.06 µM | IC50 [2, 5]: 0.025 µM | efficacy against malaria (in words) [3]: Very close in therapeutic efficacy against malaria
